Experimental data from patent publication US20250099448A1, “HETEROCYCLIC COMPOUNDS” (Hoffmann-La Roche Inc., priority 2022, published 2025).

These compounds were tested against T1, MAGL protein (Homo sapiens, UniProt Q99685) (assay: 2-AG assay: MAGL inhibitory activity by hydrolysis of 2-arachidonoylglycerol to arachidonic acid, followed by mass spectrometry). Settings: 8 μM 2-arachidonoylglycerol, 15 min preincubation, 30 min reaction at RT, RapidFire MS readout.
T1 sequence (Q99685 1-303): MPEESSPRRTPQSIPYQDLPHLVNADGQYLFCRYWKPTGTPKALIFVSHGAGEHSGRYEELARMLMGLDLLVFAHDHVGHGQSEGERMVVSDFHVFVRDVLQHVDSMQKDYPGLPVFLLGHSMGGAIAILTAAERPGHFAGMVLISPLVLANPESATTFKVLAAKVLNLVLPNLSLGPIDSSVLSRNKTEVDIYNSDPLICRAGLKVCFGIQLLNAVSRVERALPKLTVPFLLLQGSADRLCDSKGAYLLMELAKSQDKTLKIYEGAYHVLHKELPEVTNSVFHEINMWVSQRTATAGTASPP
Assay type: biochemical
Summary of the method: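 Activity was measured by RapidFire SPE–triple-quad MS as the ratio of arachidonic acid to d8-arachidonic acid after 2-AG hydrolysis (8 μM substrate, 30 min, RT, acetonitrile quench). Compounds, tested from 12.5 μM down to […], were first preincubated 15 min with MAGL in TRIS/EDTA/Tween-20 buffer containing 2.5% DMSO.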

Row | SMILES | IC50
1 | O=C(N1CC(c2cnc(N3CC(C(F)(F)F)C3)nc2)C1)N1CC2(CC(c3nnc(C4CC4)[nH]3)C2)C1 [compound 263] | 8.21 nM
2 | O=C(N1CC(c2ccc(NC3(C(F)(F)F)CC3)nc2)C1)N1CC2(CC(c3nnc(C4(O)CC4)[nH]3)C2)C1 [compound 272] | 3.67 nM
3 | O=C(N1CC(c2ccc(NC3(C(F)(F)F)CC3)nc2)C1)N1CC2(CC(c3nnc(C4CCC4)[nH]3)C2)C1 [compound 273] | 10.7 nM
4 | O=C(N1CC(c2ccc(N3CC4(CCOC4)C3)nc2)C1)N1CC2(CC(c3nnc(C4CC4)[nH]3)C2)C1 [compound 290] | 21 nM
5 | O=C(N1CC(c2ccc(N3CC4(CCCO4)C3)nc2)C1)N1CC2(CC(c3nnc(C4CC4)[nH]3)C2)C1 [compound 293] | 11.1 nM
6 | CS(=O)(=O)c1cc(C2CN(C(=O)N3CC4(CC(c5nnc(C6CC6)[nH]5)C4)C3)C2)ccc1C1CCC1 [compound 297] | 3.16 nM
7 | CC(C)(O)C1CN(c2ccc(C3CN(C(=O)N4CC5(CC(c6nnc(C7CC7)[nH]6)C5)C4)C3)cn2)C1 [compound 298] | 8.03 nM
8 | N#Cc1c(OC2CN(C(=O)N3CC4(CC(c5nnc(C6CC6)[nH]5)C4)C3)C2)cccc1C1CC1 [compound 310] | 2.3 nM
9 | O=C(N1CC(OCc2ccc(C(F)(F)F)cc2F)C1)N1CC2(CC(c3nnc(C4CC4)[nH]3)C2)C1 [compound 311] | 2.35 nM
10 | O=C(N1CC(Oc2ccc(C3CC3)cc2)C1)N1CC2(CC(c3nnc(C4(O)CC4)[nH]3)C2)C1 [compound 312] | 2.97 nM
11 | O=C(N1CC(Oc2ccc(C3CC3)cc2F)C1)N1CC2(CC(c3nnc(C4(O)CC4)[nH]3)C2)C1 [compound 313] | 4.59 nM
12 | O=C(N1CC(Oc2ccc(C(F)(F)F)nn2)C1)N1CC2(CC(c3nnc(C4CC4)[nH]3)C2)C1 [compound 314] | 4.76 nM
13 | O=C(N1CC(OCc2ccc(OC(F)(F)F)cc2)C1)N1CC2(CC(c3nnc(C4CC4)[nH]3)C2)C1 [compound 315] | 4.93 nM
14 | O=C(N1CC(OCc2ccc(S(=O)(=O)C(F)(F)F)cc2)C1)N1CC2(CC(c3nnc(C4CC4)[nH]3)C2)C1 [compound 316] | 6.21 nM
15 | N#Cc1cc(C2CC2)ccc1OC1CN(C(=O)N2CC3(CC(c4nnc(C5(O)CC5)[nH]4)C3)C2)C1 [compound 317] | 7.18 nM
16 | COC(=O)C(C)(C)c1cccc(OC2CN(C(=O)N3CC4(CC(c5nnc(C6CC6)[nH]5)C4)C3)C2)c1 [compound 318] | 7.3 nM
17 | O=C(N1CC(Oc2ccc(C(F)(F)F)c(C3CC3)c2)C1)N1CC2(CC(c3nnc(C4(O)CC4)[nH]3)C2)C1 [compound 319] | 8.04 nM

Row | SMILES | IC50
18 | O=C(N1CC(OCc2ccc(F)cc2Cl)C1)N1CC2(CC(c3nnc(C4CC4)[nH]3)C2)C1 [compound 320] | 8.28 nM
19 | O=C(N1CC(OCc2cccc(S(=O)(=O)C(F)(F)F)c2)C1)N1CC2(CC(c3nnc(C4CC4)[nH]3)C2)C1 [compound 321] | 10.8 nM
20 | O=C(N1CC(Oc2cccc(C3CC3)c2F)C1)N1CC2(CC(c3nnc(C4(O)CC4)[nH]3)C2)C1 [compound 322] | 11.7 nM
21 | O=C(N1CC(Oc2ccc(C(F)(F)F)cc2)C1)N1CC2(CC(c3nnc(C4(O)CC4)[nH]3)C2)C1 [compound 323] | 12.3 nM
22 | O=C(N1CC(OCc2ccc(C(F)(F)F)cc2F)C1)N1CC2(CC(c3nnc(C4(O)CC4)[nH]3)C2)C1 [compound 324] | 14.3 nM
23 | O=C(N1CC(Oc2ccc(Cl)c(C3CC3)c2)C1)N1CC2(CC(c3nnc(C4(O)CC4)[nH]3)C2)C1 [compound 325] | 14.7 nM
24 | O=C(N1CC(OCC2CCC(F)(F)CC2)C1)N1CC2(CC(c3nnc(C4CC4)[nH]3)C2)C1 [compound 326] | 22.8 nM
25 | O=C(N1CC(OCC2CC3C(C2)C3(F)F)C1)N1CC2(CC(c3nnc(C4CC4)[nH]3)C2)C1 (centres unmarked) [compound 327] | 24.9 nM
26 | O=C(N1CC(Oc2cnc(Cl)c(C3CC3)c2)C1)N1CC2(CC(c3nnc(C4CC4)[nH]3)C2)C1 [compound 328] | 35.4 nM
27 | O=C(N1CC(OCc2cncc(C(F)(F)F)c2)C1)N1CC2(CC(c3nnc(C4CC4)[nH]3)C2)C1 [compound 329] | 38.1 nM
28 | CS(=O)(=O)c1ccc(COC2CN(C(=O)N3CC4(CC(c5nnc(C6CC6)[nH]5)C4)C3)C2)c(F)c1 [compound 330] | 59.9 nM
29 | O=C(N1CC(OCC2(C(F)(F)F)CC2)C1)N1CC2(CC(c3nnc(C4CC4)[nH]3)C2)C1 [compound 331] | 109 nM
30 | O=C(N1CC(OCc2ccc(C(F)(F)F)nc2)C1)N1CC2(CC(c3nnc(C4CC4)[nH]3)C2)C1 [compound 332] | 159 nM
31 | CS(=O)(=O)c1ccc(COC2CN(C(=O)N3CC4(CC(c5nnc(C6CC6)[nH]5)C4)C3)C2)cc1 [compound 333] | 159 nM
32 | CS(=O)(=O)c1cccc(COC2CN(C(=O)N3CC4(CC(c5nnc(C6CC6)[nH]5)C4)C3)C2)c1 [compound 334] | 272 nM
33 | CS(=O)(=O)c1ccccc1COC1CN(C(=O)N2CC3(CC(c4nnc(C5CC5)[nH]4)C3)C2)C1 [compound 335] | 467 nM
34 | O=C(N1CC(OCc2ccc(C(F)(F)F)cc2F)C1)N1CC2(CC(c3nnc(C(O)C(F)(F)F)[nH]3)C2)C1 (centres unmarked) [compound 336] | 55.8 nM

Second part, the compound after the results:

Row | IC50 | SMILES
35 | 1.96 nM | O=C(N1CC(c2ccc(N3CC(C(F)(F)F)C3)cc2)C1)N1CC2(CC(c3nnc(C4(O)CC4)[nH]3)C2)C1 [compound 262]
36 | 2.27 nM | O=C(N1CC(c2cnc(N3CCC(C(F)(F)F)C3)nc2)C1)N1CC2(CC(c3nnc(C4CC4)[nH]3)C2)C1 (centres unmarked) [compound 264]
37 | 0.31 nM | O=C(N1CC(c2ccc(N3CC[C@H](C(F)(F)F)C3)nc2)C1)N1CC2(CC(c3nnc(C4CC4)[nH]3)C2)C1 [compound 267]
38 | 0.35 nM | O=C(N1CC(c2ccc(N3CC[C@@H](C(F)(F)F)C3)nc2)C1)N1CC2(CC(c3nnc(C4CC4)[nH]3)C2)C1 [compound 268]
39 | 2.29 nM | O=C(N1CC(c2ccc(N3CCC(O)(C(F)(F)F)C3)nc2)C1)N1CC2(CC(c3nnc(C4CC4)[nH]3)C2)C1 (centres unmarked) [compound 269]
40 | 0.23 nM | O=C(N1CC(c2ccc(NC3(C(F)(F)F)CC3)cc2)C1)N1CC2(CC(c3nnc(C4CC4)[nH]3)C2)C1 [compound 274]
41 | 2.07 nM | O=C(N1CC(c2ccc(N3CC(O)(C(F)(F)F)C3)nc2)C1)N1CC2(CC(c3nnc(C4CC4)[nH]3)C2)C1 [compound 275]
42 | 0.17 nM | CC(C)c1cc(C(C)C)n(-c2ccc(C3CN(C(=O)N4CC5(CC(c6nnc(C7CC7)[nH]6)C5)C4)C3)cc2)n1 [compound 276]
43 | 0.17 nM | Cc1cc(C(C)(C)C)nn1-c1ccc(C2CN(C(=O)N3CC4(CC(c5nnc(C6CC6)[nH]5)C4)C3)C2)cc1 [compound 277]
44 | 0.3 nM | Cc1cc(C(F)(F)F)nn1-c1ccc(C2CN(C(=O)N3CC4(CC(c5nnc(C6CC6)[nH]5)C4)C3)C2)cc1 [compound 278]
45 | 1.02 nM | O=C(N1CC2(CCN(c3ncc(Cl)cc3F)CC2)C1)N1CC2(CC(c3nnc(C4CC4)[nH]3)C2)C1 [compound 281]
46 | 1.03 nM | O=C(N1CC(c2ccc(C3CC(C(F)F)C3)cc2)C1)N1CC2(CC(c3nnc(C4(O)CC4)[nH]3)C2)C1 (centres unmarked) [compound 282]
47 | 0.88 nM | O=C(N1CC2(CCN(c3ccc(Cl)cc3F)CC2)C1)N1CC2(CC(c3nnc(C4CC4)[nH]3)C2)C1 [compound 283]
48 | 1.59 nM | O=C(N1CC(c2ccc(-n3ccc(C(F)(F)F)cc3=O)cc2)C1)N1CC2(CC(c3nnc(C4CC4)[nH]3)C2)C1 [compound 284]
49 | 0.37 nM | Cc1cc(C(F)F)nn1-c1ccc(C2CN(C(=O)N3CC4(CC(c5nnc(C6CC6)[nH]5)C4)C3)C2)cc1 [compound 285]
50 | 0.48 nM | O=C(N1CC(c2cnc(C3CC4(CCC4)C3)cn2)C1)N1CC2(CC(c3nnc(C4CC4)[nH]3)C2)C1 [compound 286]
51 | 0.13 nM | Cc1cc(C2CC2)n(-c2ccc(C3CN(C(=O)N4CC5(CC(c6nnc(C7CC7)[nH]6)C5)C4)C3)cc2)n1 [compound 287]
52 | 0.19 nM | Cc1cc(C2CC2)nn1-c1ccc(C2CN(C(=O)N3CC4(CC(c5nnc(C6CC6)[nH]5)C4)C3)C2)cc1 [compound 288]
53 | 0.45 nM | O=C(N1CC(c2ccc(N3CCC4(C3)CC4(F)F)nc2)C1)N1CC2(CC(c3nnc(C4CC4)[nH]3)C2)C1 (centres unmarked) [compound 289]
54 | 0.57 nM | O=C(N1CC(c2ccc(C3CC(O)(C(F)(F)F)C3)cc2)C1)N1CC2(CC(c3nnc(C4CC4)[nH]3)C2)C1 (centres unmarked) [compound 291]
55 | 0.56 nM | Cc1cc(C)n(-c2ccc(C3CN(C(=O)N4CC5(CC(c6nnc(C7CC7)[nH]6)C5)C4)C3)cc2)n1 [compound 294]
56 | 1.41 nM | O=C(N1CC(c2ccc(C3(CO)CC3)cc2)C1)N1CC2(CC(c3nnc(C4CC4)[nH]3)C2)C1 [compound 295]
57 | 0.05 nM | CC(C)(C)Cc1ccc(C2CN(C(=O)N3CC4(CC(c5nnc(C6CC6)[nH]5)C4)C3)C2)cn1 [compound 299]
58 | 1 nM | O=C(N1CC(c2ccc([C@H]3C[C@H](C(F)(F)F)C3)nc2)C1)N1CC2(CC(c3nnc(C4CC4)[nH]3)C2)C1 [compound 300]
59 | 1.69 nM | O=C(N1CC(c2ccc([C@H]3C[C@H](C(F)F)C3)nc2)C1)N1CC2(CC(c3nnc(C4CC4)[nH]3)C2)C1 [compound 301]
60 | 0.48 nM | O=C(N1CC(c2ccc(N3CC4(CCCC4)C3)nc2)C1)N1CC2(CC(c3nnc(C4CC4)[nH]3)C2)C1 [compound 302]
61 | 0.44 nM | COc1cc(C(F)(F)F)ccc1COC1CN(C(=O)N2CC3(CC(c4nnc(C5CC5)[nH]4)C3)C2)C1 [compound 307]
62 | 2.2 nM | O=C(N1CC(OCc2ccc(S(=O)(=O)C(F)(F)F)cc2F)C1)N1CC2(CC(c3nnc(C4CC4)[nH]3)C2)C1 [compound 309]
